Laboratory results: the CheMixHub viscosity set

Experiment: xn = mol fraction of the nth substance listed

CC(C)c1ccccc1 + Cc1ccccc1
Settings	viscosity [mPa·s]
293.15 K, 101.33 kPa, x2 = 0.2846	0.727
293.15 K, 101.33 kPa, x2 = 0.5253	0.676
293.15 K, 101.33 kPa, x2 = 0.6998	0.644
293.15 K, 101.33 kPa, x2 = 0.856	0.612
298.15 K, 101.3 kPa, x2 = 0.1169	0.6671
298.15 K, 101.3 kPa, x2 = 0.2596	0.643
298.15 K, 101.3 kPa, x2 = 0.3951	0.6203
298.15 K, 101.3 kPa, x2 = 0.508	0.6016
298.15 K, 101.3 kPa, x2 = 0.605	0.5854
298.15 K, 101.3 kPa, x2 = 0.7505	0.5615
298.15 K, 101.3 kPa, x2 = 0.8459	0.5459
298.15 K, 101.3 kPa, x2 = 0.9474	0.5288
303.15 K, 101.33 kPa, x2 = 0.2846	0.638
303.15 K, 101.33 kPa, x2 = 0.5253	0.597
303.15 K, 101.33 kPa, x2 = 0.6998	0.57
303.15 K, 101.33 kPa, x2 = 0.856	0.544
313.15 K, 101.33 kPa, x2 = 0.2846	0.569
313.15 K, 101.33 kPa, x2 = 0.5253	0.533
313.15 K, 101.33 kPa, x2 = 0.6998	0.509
313.15 K, 101.33 kPa, x2 = 0.856	0.485
323.15 K, 101.33 kPa, x2 = 0.2846	0.507
323.15 K, 101.33 kPa, x2 = 0.5253	0.477
323.15 K, 101.33 kPa, x2 = 0.6998	0.458
323.15 K, 101.33 kPa, x2 = 0.856	0.437

CCCCOC(C)=O + Cc1ccccc1
viscosity [mPa·s], 101 kPa
Settings	293.15 K	298.15 K	303.15 K	308.15 K	313.15 K	318.15 K
x1 = 0.0478	–	0.552	–	0.499	–	–
x1 = 0.1494	–	0.556	–	0.503	–	–
x1 = 0.249	–	0.563	–	0.509	–	–
x1 = 0.348	–	0.571	–	0.515	–	–
x1 = 0.4469	–	0.581	–	0.523	–	–
x1 = 0.501	–	0.587	–	0.528	–	–
x1 = 0.5488	–	0.593	–	0.532	–	–
x1 = 0.6468	–	0.607	–	0.543	–	–
x1 = 0.7365	–	0.621	–	0.554	–	–
x1 = 0.8683	–	0.645	–	0.572	–	–
x1 = 0.9671	–	0.666	–	0.588	–	–
x2 = 0.1024	0.7105	0.6642	0.6223	0.5852	0.5502	0.5173
x2 = 0.205	0.6942	0.6504	0.6104	0.5742	0.5405	0.5084
x2 = 0.3107	0.6786	0.6362	0.5973	0.5624	0.5294	0.4996
x2 = 0.4031	0.6661	0.6247	0.587	0.5526	0.5208	0.4908
x2 = 0.4615	0.6566	0.6161	0.579	0.546	0.514	0.4858
x2 = 0.5069	0.6517	0.6115	0.5746	0.5408	0.5103	0.4814
x2 = 0.5564	0.6439	0.6045	0.5683	0.5352	0.5051	0.4769
x2 = 0.614	0.6371	0.5984	0.5628	0.5301	0.5003	0.4725
x2 = 0.7101	0.6252	0.5864	0.5515	0.5197	0.4913	0.4644
x2 = 0.8103	0.6123	0.5753	0.5419	0.5103	0.4833	0.4562
x2 = 0.908	0.6017	0.5667	0.5337	0.5035	0.4761	0.4496

C=COC(C)=O + Cc1ccccc1C
viscosity [mPa·s], 101 kPa
Settings	x1 = 0.1492	x1 = 0.2538	x1 = 0.3604	x1 = 0.4517	x1 = 0.5641	x1 = 0.6689	x1 = 0.7705	x1 = 0.8616	x1 = 0.9508
303.15 K	0.632	0.594	0.558	0.529	0.494	0.463	0.435	0.413	0.394
313.15 K	0.57	0.537	0.505	0.478	0.446	0.417	0.391	0.37	0.353

CCCCOC(C)=O + Cc1ccccc1C
viscosity [mPa·s], 101 kPa
Settings	298.15 K	308.15 K
x1 = 0.0481	0.751	0.652
x1 = 0.1501	0.735	0.64
x1 = 0.2484	0.722	0.63
x1 = 0.3482	0.71	0.621
x1 = 0.4474	0.7	0.614
x1 = 0.5002	0.696	0.61
x1 = 0.5477	0.692	0.607
x1 = 0.657	0.685	0.602
x1 = 0.7456	0.68	0.599
x1 = 0.8459	0.677	0.596
x1 = 0.9461	0.675	0.594
